Measurements reported in US20030161893A1, “PTPase inhibitors and methods of using the same” (priority 2001, published 2003).

Assays:
PTP1B = biological target: T1, PTP1B (Homo sapiens, UniProt P18031); assay: In vitro PTPase assay, GST/PTP1B fusion protein; type: biochemical; conditions: 0.1 to 1 μg/ml
T1 construct: purchased Upstate Biotechnology Inc. (Lake Placid, N.Y.)
Experimental: In vitro PTPase activities were measured using the commercial protein tyrosine phosphatase assay kit (Upstate Biotechnology, Inc. (“UBI”)) following established procedure known to one of skill in the art. This assay measures the in vitro dephosphorylation of a synthetic phosphotyrosine peptide of the sequence Arg-Arg-Leu-Ile-Glu-Asp-Ala-Gle-Tyr-Ala-Ala-Arg-Gly, wherein the tyrosine is phosphorylated (SEQ ID NO: 3). Briefly, 0.01 μg of GST/PTPase fusion proteins was incubated in 50 μl of Tris buffer (10 mM Tris, pH 7.4) containing different concentrations of inhibitors or chemicals (0-1,000 μg/ml) at 22° C. for 10 minutes, followed by addition of 0.2 mM of the phosphotyrosine peptide and incubation at 22° C. for 18 hours. 100 μl of Malachite Green solution was added and incubated for 5 minutes, and the absorbance at 660 nm was measured after 5 minutes.

Baf3 cells = assay: Baf3 cell proliferation assay; type: cell-based, murine
Experimental: The murine hematopoietic cell line Baf3 was maintained in RPMI 1640 medium supplemented with 10% fetal calf serum (FCS) and murine IL-3 (20 units/ml) as described previously in Damen et al., J. Biol. Chem. 270, 23402 (1995). Human myeloid cell line TF-1 was maintained in RPMI 1640 supplemented with 10% FCS and 40 ng/ml of recombinant human GM-CSF as described previously in Thomassen et al., Clin. Immunol. 95, 85 (2000). For cell proliferation assays, cells were washed in 10% FCS medium twice, resuspended in 10% FCS medium, incubated at 37° C. for 16 hours, and then cultured at 37° C. in 10% FCS medium containing various amounts of cytokines, sodium stibogluconate, or potassium antimonyl tartrate for 3-6 days as indicated. The cell numbers in proliferation assays were determined by an MTT assay or by microscopic cell counting as indicated.

[1] = Tolerability in nude mice (viability, body weight, organs); type: in vivo
Experimental: Nude mice bearing WM9 or DU145 xenografts were treated with IFN-alpha (500,000 U, s.c., daily), sodium stibogluconate (12 mg Sb, s.c., daily) or both. […] The dosage of sodium stibogluconate corresponds to approximately 440 mg Sb/kg body weight (average mouse body weight 27 g), substantially higher than the standard therapeutic dose of 20 mg Sb/kg and the high dose (143 mg Sb/kg) that was clinically used by accident without serious toxicity. This dose of sodium stibogluconate was based on a previous observation in a pilot study that mice could tolerate daily dose of 20 mg Sb (approximately 700-800 mg Sb/kg). An observation that the effect of sodium stibogluconate in inhibiting the growth of the cancer cell lines in vitro was dose-dependent with complete or near complete killing of the cancer cells at […] (or 100 ug Sb/kg) was also considered. In light of the relatively rapid rate of clearance of the drug in vivo, 440 mg Sb/kg dosage was used to ensure the detection of the effectiveness of the drug for this initial study.
As discussed above, the dosage of sodium stibogluconate used for the treatment of nude mice was 12 mg Sb/mouse, s.c., daily (or approximately 440 mg/kg body weight). This dosage is much higher than the standard dose for leishmaniasis (20 mg Sb/kg, daily). As an initial step to assess the toxicity of such a high dosage of sodium stibogluconate in nude mice, the effect of sodium stibogluconate on the viability and body weights of WM9 xenografts nude mice during the 25 day period of the study was determined.
Athymic nude mice (nu/nu, NCR), 4 weeks old (Taconic), were inoculated (s.c.) in the flanks with DU145 cells (3×10^6 cells/site) on day 0. Starting on day 2, the mice were subjected to no treatment (Control) or treatment with sodium stibogluconate (12 mg, s.c., daily, […], at the hip area). The dosage of sodium stibogluconate used in the study was similar to the effective daily dose of sodium stibogluconate for the treatment of murine leishmaniasis (Murray, et al. 1988). Tumor volume was measured and calculated using the formula for a prolate spheroid (V=4/3 7 a^2b) (Lindner, et al. 1997). Hematoxylin+Eosin (H.E.) stained tissue sections of internal organs and tumor inoculation sites tissues of the mice were prepared and subjected microscopic evaluation.

U251 cells = assay: Cell growth assay (MTT), U251 glioma cells; type: cell-based, human; conditions: 100 μg/ml, day 6
Experimental: NIH3T3 (Yi, et al., Blood 85, 87 (1995)), WM9 (Forsberg, et al., Proc. Nat. Acad Sci. USA 90, 393 (1993)), DU145 (Mickey, et al., Cancer Res. 37, 4049 (1977)), LoVo (Drewinko, et al., Cancer Res. 36, 467 (1976)), HEY (Buick, et al., Cancer Res. 45, 3668 (1985)), U251 (Yoshida, et al., Cancer 50, 410 (1982)), A549 (Giard, et al., J. Natl. Cancer Inst. 51, 1417 (1973)) and SK-N-SH (Helson, et al., Cancer Res. 35, 2594 (1975)) cell lines have been described and were cultured in RPMI 1640 supplemented with 10% fetal calf serum (FCS). For measurement of sodium stibogluconate effects on cell growth in vitro, cells were cultured in the absence (−) or presence (+) of various amounts of sodium stibogluconate for 6 days with viable cells quantified by MTT assays (Mosmann, J. Imunol. Methods 65, 55 (1983)). Percentages of growth inhibition by sodium stibogluconate were calculated (+/−×%).

T1 sequence (P18031 whole entry, species assumed, the tested form may be a part): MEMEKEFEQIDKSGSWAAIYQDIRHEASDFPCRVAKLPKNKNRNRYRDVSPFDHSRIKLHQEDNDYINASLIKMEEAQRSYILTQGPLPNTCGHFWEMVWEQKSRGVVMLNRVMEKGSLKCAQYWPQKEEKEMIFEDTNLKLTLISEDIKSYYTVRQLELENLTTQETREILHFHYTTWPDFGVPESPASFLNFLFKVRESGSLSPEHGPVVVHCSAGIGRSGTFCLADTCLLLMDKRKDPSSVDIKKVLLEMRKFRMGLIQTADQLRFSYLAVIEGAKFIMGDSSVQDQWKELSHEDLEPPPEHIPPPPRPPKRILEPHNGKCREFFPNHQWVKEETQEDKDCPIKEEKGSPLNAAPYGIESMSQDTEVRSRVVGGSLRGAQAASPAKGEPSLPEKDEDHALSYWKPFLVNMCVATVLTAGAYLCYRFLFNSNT

SMILES: O.O.O.O.O.O.O.O.O.O=C([O-])[C@@H]1[O][Sb]2([O-])([O][Sb]34([OH])[O][C@H]([C@H](O)CO)[C@H]([O]3)[C@H](C(=O)[O-])[O]4)[O][C@H]([C@H](O)CO)[C@@H]1[O]2.[Na+].[Na+].[Na+] [sodium stibogluconate]
- inhibition of PTP1B activity (PTP1B): only modestly effective
- IL-3-induced Baf3 growth at high concentration (Baf3 cells; 1,000 μg/ml): suppressed IL-3-induced Baf3 growth
- Baf3 proliferation/viability in the absence of IL-3 (Baf3 cells; day 3 culture): failed to support cell proliferation or maintain cell viability
- tolerability at the dosage used ([1]; 12 mg Sb daily (440 mg Sb/kg daily)): well tolerated with no serious side effects
- survival of DU145 tumor mice ([1]; 440 mg/kg daily): survived until the end of the study
- histology of major organs ([1]; 440 mg/kg daily, DU145 tumor mice): unremarkable
- tolerated daily dose in mice (pilot study) ([1]; approximately 700-800 mg Sb/kg): 20 mg Sb
- survival of WM9 xenograft nude mice ([1]; day 25, 4 mice/group): survived until the end of the study
- cell killing, U251 (U251 cells): near-complete cell killing
